# Article PMC10893061, “Novel 2,5-Diketopiperazines with In Vitro Activities against Protozoan Parasites of Tropical Diseases” (Pharmaceuticals, 2024)
# Like-named read-outs stand apart in the source and are kept apart here.
# Tests used:
# [1] = system: P. falciparum; design: method as in PMID 14513908; conditions: cited from earlier work
# [2] = system: human and monkey cell lines; design: method as in PMID 14513908; conditions: cited from earlier work
# [3] = system: Leishmania infantum (MHOM/BR/1974/PP75) in THP-1 macrophages; experiment: Anti-Leishmania infantum activity assay (infected THP-1 macrophages, red fluorescence); type: cell-based; conditions: for IC50: Leishmania infantum, L. infantum in THP-1 macrophages, 72 h; for Status: L. infantum, activity status from IC50 and SI
# Experimental: (§1) Their half-maximum cytotoxic concentrations (CC50) and their selectivity indices (SI), obtained as the ratio of the cytotoxic concentration against the bioactive concentration are shown in Table 2. Theoretically, the higher the SI value, the greater the effectiveness for the target and the lower the toxicity of the compound, characterizing a potentially safe and selective drug.
# Cells derived from the human monocytic strain THP-1 were cultured in complete Rowell Park Memorial Institute (RPMI)-1640 medium (supplemented with 10% fetal bovine serum, 100 U/mL penicillin, and 100 μg/mL streptomycin). Monocytes were differentiated into macrophages by the addition of 20 ng/mL phorbol myristate acetate (PMA). […] The IC50 values were determined by non-linear regression using a variable slope model (log[concentration] vs. growth inhibition) with the GraphPad Prism v8.2.0 (Boston, MA, USA) software. Controls with uninfected cells, untreated infected cells, infected cells treated with amphotericin B at 0.25 μM (positive control) or DMSO 1% were used. Quadruplicates were run in the same plate, and the experiments were repeated at least once.
# [4] = Cytotoxicity on THP-1 derived macrophages (AlamarBlue); type: cell-based; conditions: human, THP-1 cells differentiated into macrophages, THP-1 macrophages
# Experimental: For the cytotoxicity assay, human monocytic THP-1 cells were differentiated into macrophages in 96-well microtiter plates for 72 h, as described above. The medium was then replaced, and the cells were exposed to the compounds at increasing concentrations starting at IC50 value for each Leishmania spp. line. After 72 h of incubation with the compounds, AlamarBlue™ was added and the absorbance at 570 and 600 nm was measured after 4 h. Controls with untreated and DMSO 1%-treated cells were run in parallel. The results were expressed as the percentual difference in the reduction between treated and untreated cells. The compound concentration that inhibits 50% of the THP-1 cell viability (CC50) was determined. The CC50 values were determined by non-linear regression using a variable slope model (log(concentration) vs. growth inhibition) with the GraphPad Prism v8.2.0 (CA, USA) software. Triplicates were run in the same plate and the experiments were repeated at least once.
# [5] = system: T. cruzi Tulahuen strain in L929 cells; experiment: Anti-Trypanosoma cruzi activity assay (infected L929 cells, beta-galactosidase reporter); type: cell-based; conditions: for IC50: Trypanosoma cruzi, T. cruzi Tulahuen in L929 cells, 96 h; for Status: T. cruzi, activity status from IC50 and SI
# Experimental: as §1
# The in vitro anti-T. cruzi activity was evaluated on L929 cells (mouse fibroblasts) infected with Tulahuen strain of the parasite expressing the Escherichia coli β-galactosidase as reporter gene according to the method described previously. Briefly, four thousand L929 cells were added to each well of a 96-well microtiter plate. After an overnight incubation, a 10 fold excess of trypomastigotes were added to the cells, incubated for 2 h, then replaced with 200 μL of fresh medium and incubated for additional 48 h to establish the infection. For IC50 determination, the cells were exposed to each synthesized compound at serial decreasing dilutions and the plate was incubated for 96 h. Afterwards, 50 μL of 500 μM chlorophenol red beta-D-galactopyranoside (CPRG) in 0.5% Nonidet P40 was added to each well, and the plate incubated for 16 to 20 h, after which the absorbance at 570 nm was measured. Controls with uninfected cells, untreated infected cells, infected cells treated with benznidazole at 3.8 μM (positive control) or 1% DMSO were used. The results were expressed as the percentage of T. cruzi growth inhibition in compound tested cells as compared to the infected cells and untreated cells. The IC50 values were calculated by linear interpolation. Quadruplicates were run in the same plate, and the experiments were repeated at least once.
# (§2) IC50 over T. cruzi and L929 cells were determined by linear interpolation and the selectivity index (SI) was calculated by the ratio of CC50 L929 cells/ IC50 T. cruzi.
# [6] = Cytotoxicity on L929 cells (AlamarBlue); type: cell-based; conditions: mouse, L929 mouse fibroblast cells
# Experimental: The medium was then replaced, and the cells were exposed to compounds at increasing concentrations starting at IC50 value for T. cruzi. After 96 h of incubation with the compounds, AlamarBlue^TM was added and the absorbance at 570 and 600 nm was measured after 4–6 h. Controls with untreated and DMSO 1%-treated cells were run in parallel. The results were expressed as the percent difference in the reduction between treated and untreated cells. The compound concentration that inhibits 50% of the L929 cell viability (CC50) was determined. Quadruplicates were run in the same plate and the experiments were repeated at least once.
# as §2
# [7] = system: P. falciparum chloroquine-resistant and mefloquine-sensitive W2 clone; experiment: Anti-Plasmodium falciparum activity assay (SYBR, erythrocytic asexual stages); type: cell-based; conditions: for IC50: Plasmodium falciparum, W2, 48 h
# Experimental: In vitro assay with P. falciparum culture were performed as described previously. […] The activity was measured using the SYBR assay with the parasite suspension (0.5% parasitemia and 2% hematocrit) with minor modifications. The test compounds, in serial dilutions, were incubated in “U” bottom 96-wells plates. After 48 h at 37 °C, the culture supernatant was removed and replaced by 100 µL of lysis buffer solution [Tris (20 mM; pH 7.5), EDTA (5 mM), saponin (0.008%; wt/vol), and Triton X 100 (0.08%; vol/vol)] followed by addition of 0.2 µL/mL SYBR Safe (Sigma-Aldrich, Carlsbad, CA, USA). The plate content was transferred to a flat bottom plate and incubated in the dark for 30 min. The plate was read in a fluorometer (Synergy H4 Hibrid Reader, Biotek) with excitation at 485 nm and 535 nm of emission. In all tests, the compound activities were expressed by the 50% inhibitory concentration of the parasite growth (IC50) when compared to the drug-free controls and estimated using the curve-fitting software Origin 8.0 (OriginLab Corporation, Northampton, MA, USA).
# [8] = Cytotoxicity, neutral red uptake assay on BGM cells; type: cell-based; conditions: BGM monkey kidney cells
# Experimental: The BGM cells were incubated with 20 µL of the drugs at different concentrations (≤1000 µg/mL) for 24 h in a 5% CO2 at 37 °C. The neutral red uptake assay was used to evaluate the lysosomal integrity and distinguishes live cells from dead by its ability to incorporate the dye. Briefly, to each well was added 0.2 mL medium containing 50 µg/mL of neutral red solution. The plate was incubated for another 3 h at 37 °C to allow for the uptake of the vital dye into the lysosomes of viable uninjured cells. After removal of medium, 200 µL of a mixture of 0.5% formaldehyde-1% CaCl2 was added to the cells and incubated by 5 min. The supernatant was removed and 100 µL of a solution of 1% acetic acid-50% ethanol was added to each well to extract the dye. After homogenization, the optical density of each well of the plate was measured using a 540 nm wavelength on a spectrophotometer. This absorbance has shown a linear relationship with the number of surviving cells. The cell viability was expressed as the percentage of control absorbance obtained from the untreated cells after subtracting the appropriate background.
# [9] = P. falciparum W2 clone, 48 h, SYBR, read-out: IC50
smiles,measurement,setting,value
CN1C(=O)C2(CO)NC(=O)C1(Cc1ccccc1)SSSS2 (stereo not shown) [1-demethylhyalodendrin tetrasulfide],IC50,[1],6.7 µM
same,cytotoxicity,[2],high cytotoxicity
"C[C@@H]1[C@H](O)[C@@H](C)/C=C/C=C/C=C/C=C/C=C/C=C/C=C/[C@H](O[C@@H]2O[C@H](C)[C@@H](O)[C@H](N)[C@@H]2O)C[C@@H]2O[C@](O)(C[C@@H](O)C[C@@H](O)[C@H](O)CC[C@@H](O)C[C@@H](O)CC(=O)O[C@H]1C)C[C@H](O)[C@H]2C(=O)O [Amphotericin B, reference compound]",IC50,[3],0.228 ± 0.025 µg/mL
same,CC50 at 72 h,[4],367 ± 1 µg/mL
"O=C(Cn1ccnc1[N+](=O)[O-])NCc1ccccc1 [Benznidazole, reference compound]",IC50,[5],0.5 ± 0.1 µg/mL
same,CC50 at 96 h,[6],540 µg/mL
"CCN(CC)CCCC(C)Nc1ccnc2cc(Cl)ccc12 (stereo not shown) [Chloroquine, reference compound]",IC50,[7],0.174 ± 0.055 µg/mL
CCc1ccc(C2C(=O)N(c3ccc(Cl)cc3)CC(=O)N2c2ccccc2)cc1 (stereo not shown) [Compound 2],Status,[3],inactive
same,IC50,[3],> 100 µg/mL
CN(C)c1ccc(C2C(=O)N(c3ccc(Cl)cc3)CC(=O)N2c2ccccc2)cc1 (stereo not shown) [Compound 3],Status,[3],inactive
same,IC50,[3],49.1 ± 1.6 µg/mL
O=C1C(c2ccc(Cl)cc2)N(c2ccccc2)C(=O)CN1c1ccc(Cl)cc1 (stereo not shown) [Compound 4],Status,[3],inactive
same,IC50,[3],35.7 ± 0.8 µg/mL
O=C1C(c2ccccc2F)N(c2ccccc2)C(=O)CN1c1ccc(Cl)cc1 (stereo not shown) [Compound 5],IC50,[7]; [9],15.6 ± 2.6 µg/mL
same,CC50 at 24 h,[8],≤ 3.1 µg/mL
same,Status,[5],"toxic (selectivity index = CC50/IC50, values < 10 are considered toxic)"
same,IC50,[5],9.3 ± 0.1 µg/mL
same,CC50 at 96 h,[6],29.2 µg/mL
CC(=O)Nc1ccc(C2C(=O)N(c3ccc(Cl)cc3)CC(=O)N2c2ccccc2)cc1 (stereo not shown) [Compound 7],Status,[3],part. ACTIVE (20 > IC50 > 10 µg/mL partially active)
same,IC50,[3],16 ± 1 µg/mL
same,CC50 at 72 h,[4],679 ± 1 µg/mL
COc1ccc(C2C(=O)N(c3ccc(Cl)cc3)CC(=O)N2c2ccccc2)cc1Br (stereo not shown) [Compound 8],Status,[5],ACTIVE
same,IC50,[5],7.3 ± 1.5 µg/mL
same,CC50 at 96 h,[6],> 400 µg/mL
COc1ccc(OC)c(C2C(=O)N(c3ccc(Cl)cc3)CC(=O)N2c2ccccc2)c1 (stereo not shown) [Compound 9],Status,[3],inactive
same,IC50,[3],50.8 ± 1.1 µg/mL
O=C1C(c2cccc(Cl)c2)N(c2ccccc2)C(=O)CN1c1ccc(Cl)cc1 (stereo not shown) [Compound 10],Status,"[7]; P. falciparum, activity status from IC50 and SI",inactive
same,IC50,[7]; [9],28.1 ± 0.3 µg/mL
